# Data reported in patent publication US11571437B2, “Methods of treating cancer using PRMT5 inhibitors” (Janssen Pharmaceutica NV, priority 2019, dated 2023).
# How the values were obtained:
# various solid tumors = test: Phase 1 open-label study Part 1: preliminary clinical activity (RECIST); assay type: in vivo, human
# Source text: (§1) This is a multi-part, Phase 1, open-label, multicenter study to evaluate the safety, pharmacokinetics, pharmacodynamics, and preliminary clinical activity of JNJ-64619178 monotherapy administered either to adult human subjects with advanced solid tumors or B cell non-Hodgkin lymphomas who previously received or are ineligible for standard treatment options, or to adult subjects with lower risk myelodysplastic syndromes (MDS) who are red blood cell (RBC) transfusion-dependent and relapsed or refractory to erythropoiesis-stimulating agent (ESA) treatment.
# (§2) Fifty-four (54) participants with various solid tumors (e.g., breast cancer, prostate cancer, salivary duct carcinoma, adenoid cystic carcinoma, and uveal melanoma) were dosed in the “Part 1” study described below with JNJ-64619178 at 0.5 mg (1st cohort), 1 mg (2nd cohort), 2 mg (3rd cohort), 4 mg (4th cohort), and 3 mg (5th cohort) under a schedule of 14 days continuous dose administration followed by a 7-day rest period (14 days on/7 days off in a 21-day cycle); or at 1 mg (6th cohort) or 2 mg (7th cohort) under a schedule of 21 days continuous dosing. Average treatment duration was 3 months, with a range of 0.4 to 22.4 months. […] The maximum tolerated dose was considered 3 mg on the 14 days on/7 days off schedule or 2 mg on the continuous dosing schedule. […] The participant with confirmed PR was from cohort 2.
# (§3) Two provisional RP2Ds were selected: 1.5 mg intermittently and 1 mg QD.
# NCI-H1048 xenografts = test: NCI-H1048 xenograft, continuous versus 7+/7- dosing (Study 3); assay type: in vivo, mice; conditions: 10 mg/kg once daily oral, at day 28
# Procedure: FIG. 4 is a line graph showing extended tumor growth inhibition using a dosing cessation of the compound of the disclosure in the NCI-H1048 tumor model at a JNJ64619178 dosage of 10 mg/kg for either 28 consecutive days or for two cycles of 7 daily drug treatment followed by 7 days dosing holidays (7+/7 −, 2 cycles).
# In all xenografts studies, the average tumor volume at treatment initiation was about 150 mm^3 and mean tumor volumes (mm^3)±SEM of each group were graphed over time as indicated in FIG. 4.
# [1] = system: NCI H1048 human SCLC xenografts; test: second NCI-H1048 human SCLC mouse xenograft study, 10 days dosing and 10 days regrowth observation; assay type: in vivo, mice; conditions: 10 mg/kg oral gavage for 10 days
# PRMT5/MEP50 complex = PRMT5/MEP50 complex (Homo sapiens, UniProt O14744); test: in vitro thermal shift experiments; assay type: binding
# PRMT5/MEP50 complex, sequence (O14744 whole entry): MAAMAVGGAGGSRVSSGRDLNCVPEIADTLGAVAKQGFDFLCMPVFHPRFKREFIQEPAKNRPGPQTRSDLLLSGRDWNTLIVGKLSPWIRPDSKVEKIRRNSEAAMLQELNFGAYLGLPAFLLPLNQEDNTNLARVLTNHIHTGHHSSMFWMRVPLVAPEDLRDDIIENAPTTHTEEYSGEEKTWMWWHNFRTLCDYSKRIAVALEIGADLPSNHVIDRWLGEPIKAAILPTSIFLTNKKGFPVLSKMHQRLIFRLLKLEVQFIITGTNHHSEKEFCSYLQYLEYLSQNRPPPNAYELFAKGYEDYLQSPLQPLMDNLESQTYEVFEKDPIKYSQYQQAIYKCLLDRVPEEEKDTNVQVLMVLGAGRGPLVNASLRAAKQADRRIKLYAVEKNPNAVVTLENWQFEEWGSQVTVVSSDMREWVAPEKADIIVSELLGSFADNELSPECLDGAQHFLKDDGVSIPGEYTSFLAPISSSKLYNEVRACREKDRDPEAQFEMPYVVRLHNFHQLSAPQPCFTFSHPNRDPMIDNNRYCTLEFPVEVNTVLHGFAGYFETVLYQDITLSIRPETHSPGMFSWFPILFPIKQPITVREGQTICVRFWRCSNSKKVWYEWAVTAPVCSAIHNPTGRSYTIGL
# PRMT5/MEP50 complex, sequence (Q9BQA1 whole entry partner): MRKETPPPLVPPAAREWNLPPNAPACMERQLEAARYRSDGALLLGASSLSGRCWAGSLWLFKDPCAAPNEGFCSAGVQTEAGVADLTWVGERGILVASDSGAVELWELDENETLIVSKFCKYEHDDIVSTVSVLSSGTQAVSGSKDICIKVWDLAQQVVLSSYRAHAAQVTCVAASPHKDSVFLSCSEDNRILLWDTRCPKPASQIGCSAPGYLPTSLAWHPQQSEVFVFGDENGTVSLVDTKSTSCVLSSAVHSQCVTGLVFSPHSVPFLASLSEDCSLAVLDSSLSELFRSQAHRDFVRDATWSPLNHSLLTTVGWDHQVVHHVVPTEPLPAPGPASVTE
# Source text: (§4) This unique mode-of-binding translates into very potent and time-dependent PRMT5 enzyme inhibition.
# [2] = system: NCI-H1048 human xenograft model of SCLC; test: NCI-H1048 human SCLC xenograft, once daily oral dosing up to 28 days (Study 1); assay type: in vivo, mice
# Procedure: JNJ-64619178 was tested for antitumor activity in the NCI-H1048 human xenograft model of SCLC. Male mice were subcutaneously implanted with NCI-H1048 cells, and tumors were allowed to grow for 14 days, reaching 174±51 mm^3 in volume, when treatment was started. Mice were administered once daily oral doses of JNJ-64619178 at 1, 3, and 10 mg/kg or 20% hydroxypropyl-β-cyclodextrin (HP-β-CD) vehicle control for up to 28 days.
# FIG. 1 details the individual tumor regrowth observed following cessation of once daily treatment with 10 mg/kg JNJ 64619178 or vehicle control. In all 8 mice treated with 10 mg/kg JNJ 64619178, tumor regrowth began approximately 14 days after cessation of dosing, with tumors reaching ethical limits by Day 92 postimplantation.
# plasma SDMA = test: Phase 1 open-label study Part 1: target engagement by plasma SDMA; assay type: in vivo, human; conditions: even with intermittent dosing
# Procedure: as §3
# [3] = Phase 1 open-label study Part 1: plasma pharmacokinetics; assay type: in vivo; conditions: human plasma, oral capsules
# Procedure: as §3
# The pharmacokinetic run-in phase will evaluate the single-dose pharmacokinetics of JNJ 64619178 prior to subsequent daily dose administration in the treatment phase. Subjects will be administered a single-dose of study drug at the site on Day 1 and remain at site for at least 6 hours for pharmacokinetic assessments. The single-dose of study drug will be followed by a 6 day rest period (i.e., Days 2 to 7 [a range of 5 to 10 days is allowed]) during which pharmacokinetic blood sample and ECG collection will be conducted. Certain subjects in Part 1 may not participate in the pharmacokinetic run-in phase.
# The treatment phase begins on Cycle 1 Day 1 with the administration of the study drug and continues until the completion of the end-of-treatment visit. During the treatment phase, multiple-dose pharmacokinetics of JNJ-64619178 will be evaluated. On Cycle 1 Day 14, subjects in Part 1 will remain at site for at least 8 hours after the study drug administration for pharmacokinetic and ECG assessments. Study drug should be administered at approximately the same time each day for accurate evaluation of the pharmacokinetics of JNJ 64619178.
# PRMT5/MEP50 = PRMT5/MEP50 (Homo sapiens, UniProt O14744); test: surface plasmon resonance binding studies
# PRMT5/MEP50, sequence (O14744 whole entry): as the sequence (O14744 whole entry) above
# PRMT5/MEP50, sequence (Q9BQA1 whole entry partner): as the sequence (Q9BQA1 whole entry partner) above
# Source text: as §4
# [4] = Phase 1 open-label study Part 1: safety and tolerability; assay type: in vivo, human
# Source text: as §1
# Fifteen (15) participants with various solid tumors (e.g., breast cancer, prostate cancer, salivary duct carcinoma, adenoid cystic carcinoma) were dosed in the “Part 1” study described below with JNJ-64619178 at 0.5 mg (1′ cohort), 1 mg (2nd cohort), 2 mg (3rd cohort) and 4 mg (4th cohort) under a schedule of 14 days continuous dose administration followed by a 7-day rest period (14 days on/7 days off in a 21-day cycle). Average treatment duration ranged from 4 weeks in the 4th cohort (4 mg 14 days on/7 days off) to 6 months in the 2nd cohort (1 mg 14 days on/7 days off). […] The Part 1 study is ongoing.
# as §2
# The JNJ-64619178 starting dose is based on toxicology results obtained using no observed adverse effect level (NOAEL) dose, more conservative than the highest non-severely toxic dose (HNSTD) in the dog as the most sensitive species. Using a default safety factor of 6 (used for HNSTD in non-rodents), a starting dose of 0.54 mg once daily (QD) was obtained, which was rounded to 0.5 mg QD. A single dose of the study drug will be administered in the pharmacokinetic run-in phase for Part 1. During the treatment phase, the study drug will be administered for 14 consecutive days followed by 7 days of rest (14 days on/7 days off dose administration) on a 21 day cycle. Alternative dosing schedules (e.g., continuous dosing, 7 days on/7 days off, and 7 days on/14 days off) are also evaluated.
# The study was initiated with dose Schedule A (14 days on/7 days off dose administration on a 21-day cycle). Table B below provides an example of possible dose escalation.
smiles,measurement,setting,value
"Nc1nc2cc(CC[C@H]3C[C@@H](n4ccc5c(N)ncnc54)[C@H](O)[C@@H]3O)ccc2cc1Br [JNJ-64619178, (1S,2R,3S,5R)-3-(2-(2-amino-3-bromoquinolin-7-yl)ethyl)-5-(4-amino-7H-pyrrolo[2,3-d]pyrimidin-7-yl)cyclopentane-1,2-diol]",best overall response: confirmed partial response,"various solid tumors; 1 of 45 participants evaluable for efficacy, from cohort 2",4.3%
same,best overall response: progressive disease,various solid tumors; 20 of 45 participants evaluable for efficacy,43%
same,best overall response: stable disease,various solid tumors; 24 of 45 participants evaluable for efficacy,52%
same,response (RECIST) in ACC,various solid tumors; adenoid cystic carcinoma,confirmed partial response
same,duration of stable disease,"various solid tumors; patients with ACC, prostate cancer, salivary gland carcinomas, and other tumor types",greater than 6 months
same,tumor growth inhibition (TGI) compared to vehicle,NCI-H1048 xenografts; 28 consecutive days,62%
same,tumor growth inhibition (TGI) compared to vehicle,NCI-H1048 xenografts; two cycles of 7 days on/7 days off (7+/7-),63%
same,tumor growth inhibition (TGI),[1],up to 72.9%
same,additional stabilization of the PRMT5/MEP50 complex in comparison to SAM binding,PRMT5/MEP50 complex,12 degrees Celsius
same,time complete regression was maintained postdose,[2]; 10 mg/kg once daily oral,up to 14 days
same,tumor regression,[2]; 10 mg/kg once daily oral,complete regression of tumors
same,tumor growth inhibition (TGI),"[2]; 10 mg/kg once daily oral, Day 42 postimplantation, vs vehicle control",99.1%
same,start of tumor regrowth after cessation of dosing,"[2]; 10 mg/kg once daily, all 8 mice",approximately 14 days
same,antitumor activity (statistical significance) compared with vehicle control,"[2]; 1, 3, and 10 mg/kg once daily oral",statistically significant antitumor activity
same,antitumor activity (biological significance),[2]; 3 and 10 mg/kg once daily oral,biologically significant antitumor activity
same,target engagement as measured by plasma SDMA,plasma SDMA,Robust target engagement
same,plasma Cmax and AUC dose dependence,[3],linearly dose-proportional
same,binding kinetics,PRMT5/MEP50,slow off-rate binding kinetics
same,maximum tolerated dose,[4]; 14 days on/7 days off schedule,3 mg
same,maximum tolerated dose,[4]; continuous dosing schedule,2 mg
same,dose-limiting toxicities,"[4]; human, in vivo",thrombocytopenia of Grade 4 or of Grade 3 lasting longer than 7 days
same,grade of non-hematologic toxicities,"[4]; human, in vivo",Grade 1 or 2 except for one case of Grade 3 vomiting lasting 24 hours
same,adverse events observed in >20% of participants,[4]; in vivo,"gastrointestinal disorders (nausea, vomiting, diarrhea), hematologic disorders (thrombocytopenia, anemia, neutropenia), general disorders (fatigue and asthenia) and dysgeusia"
same,dose limiting toxicities (DLTs),[4]; in vivo,No dose limiting toxicities (DLTs) were observed
same,most frequently reported adverse events,[4]; in vivo,"hematologic, gastrointestinal and dermatologic"
